Residues, ends and D or L forms follow the SMILES beside them. *: point of attachment. Cbz = O=C(OCc1ccccc1)*

The target of one test is T1, SLC9A1 (Homo sapiens, UniProt P19634).
T1 construct: endogenous in cells; host or cells: HAP1, KBM7 (WT and CRBN knockout)
The experiment in a line: Degradation of endogenous SLC9A1 (immunoblot). The class given is cell-based. The note with it: WT KBM7; 0.5 µM d9A1-2 16 hours; bortezomib 0.25 µM, MG-132 1 µM, MLN4924 1 µM, pomalidomide 1 µM, bafilomycin A1 10 µM. On the procedure: (B) HAP1 and KBM7 cells were treated with different concentrations of d9A1-2.
(C)Both WT and CRBN knockout KBM7 cell lines were treated with 1 µM d9A1-2 for 16 hours.
(D) Chemical “rescue” of d9A1-2 driven degradation. WT KBM7 cell lines were treated with 0.5 µM d9A1-2 for 16 hours. These cells were also treated with bortezomib (bort. 0.25 µM), MG-132 (MG, 1 µM), MLN4924 (MLN,1 µM), pomalidomide (poma., 1 µM), or bafilomycin A1 (bafi., 10 µM). All molecules, apart from bafilomycin, could rescue SLC9A1 from degradation.
(B) HAP1 cells were treated with a dose curve of the warhead, d9A1-1, d9A1-2, d9A1-3, d9A1-4, for 24 hours.
(C) KBM7 cells were treated with varying concentrations of d9A1-2.
HEK293T, LS180 were obtained from ATCC (Manassas, VA, USA), HAP1 WT, HAP1 -/-SLC38A2 (HZGHC001975c003), HAP1 -/-SLC38A9 (HZGHC000777c011) were obtained from Horizon Genomics. Other cell lines utilized here: CAKI (a gift of Georg Winter’s lab), SW620, SW480 (both a gift from Walter Berger’s lab, Medical University Vienna), LOVO, HCT15 (both a gift from Chris Gasche), KBM7 (a gift from Thijn Brummelkamp’s lab), KBM7 -/- CRBN was described in Mayor-Ruiz et al. Cells were cultured, according to the ATCC recommendation in DMEM, RPMI or IMDM medium (Gibco) supplemented with 10% (v/v) FBS and antibiotics (100 U/ml penicillin and […] streptomycin). Knock-in single cell clones of dTAG-HA SLC38A2 HAP1 cell line were generated as previously described. For starvation, culture media was replaced with media without amino acids or FBS.
(§1) For immunoblotting, whole cell extracts were prepared using RIPA lysis buffer (25 mM Tris/HCl pH 7.6, 150 mM NaCl, 1% NP-40, 1% sodium deoxycholate, 0.1% SDS, EDTA-free protease inhibitor (Roche) and phosphatase inhibitors 2+3 (Sigma- Aldrich)). Cell extracts were incubated for 15 min on ice in 50 µL RIPA buffer. Lysates were cleared by centrifugation (20,000 g, 10 min, 4° C.). Protein extracts were quantified and normalized using the BCA assay (Thermo Scientific). Where indicated, cleared lysates where treated with the enzyme PNGase (NEB) to deglycosylate the proteins. Lämmli Sample Buffer 4x was added to protein extract samples without boiling. Cell lysates were run on SDS-polyacrylamide gel in tris-glycine running buffer and transferred to nitrocellulose membranes Amersham Protran 0.45 µm (GE Healthcare), according to standard methods. The membranes were incubated with the antibodies indicated below and visualized with horseradish peroxidase-conjugated secondary antibodies (described below) using the ECL Western blotting system (Thermo Scientific). The following antibodies were used: GAPDH (Santa Cruz, sc-365062), Actin (Cyoskeleton Inc., #AAN01), HA (Covance, cat #MMS-101R), HA (Cell Signaling, #3724), HA7-HRP (Sigma, H6533), HA (Roche, #11867423001), SLC9A1 (Santa Cruz, sc-136239), SLC2A1 (Cell Signaling, #12939), SLC38A1 (Cell Signaling, #36057). Secondary antibody for imaging goat anti-Rat IgG Alexa Fluor 488 (ThermoFisher, A11006). The following secondary antibodies were used for immunoblotting: goat anti-mouse HRP (115-035-003, Jackson ImmunoResearch) and goat anti-rabbit HRP (111-035-003, Jackson ImmunoResearch).
MG132, Bortezomib, Pomalidomide were obtained from Selleckchem. MLN4924 was obtained from MedchemExpress. Bafilomycin was obtained from Enzo Life Sciences. dTAG13 was a generous gift from the Nathanael Gray laboratory, Dana Farber Cancer Institute. The d9A1 degrader series (warhead, d9A1-1 to d9A1-4) was synthesized by Wuxi AppTec. All chemicals were dissolved in DMSO (Sigma-Aldrich) and utilized at the concertation described in respective figures.
A general note: A western blot detects proteins with antibodies after separation by electrophoresis.

The subject of a further test is dTAG-HA SLCs. Briefly: dTAG-driven SLC degradation, statements across SLCs (temporal control, chemical rescue). The class given is cell-based, human. As to conditions: HAP1; 0.5 µM dTAG7 12 or 18 hours; MLN4924 1 µM, pomalidomide 10 µM, bortezomib 1 µM, MG-132 1 µM, bafilomycin A1 2.5 µM. On the procedure: (D)Chemical “rescue” of dTAG-driven degradation of SLCs. HAP1 cell lines expressing dTAG-HA SLC1A5 or dTAG-HA SLC38A9 were treated with 0.5 µM dTAG7 for 12 or 18 hours, respectively. These cells were also treated with chloroquine (CQ, 50 µM), bortezomib (bort., 1 µM), MG-132 (MG, 1 µM), MLN4924 (MLN, 1 µM), pomalidomide (poma., 10 µM), or bafilomycin A1 (bafi., 2.5 µM). SLC degradation was rescued by inhibiting CRL activity or the proteasome, but not by inhibiting the lysosome machinery.
Western blotting with antibodies against the HA-tag and the total protein mirrored the observed pattern.
(D) Chemical “rescue” of dTAG driven degradation. HAP1 cell lines expressing dTAGHA SLC2A3, 39A7, […], and MTCH2 were treated with 0.5 µM dTAG7 for 12 hours. A cell line expressing dTAG-HA SLC38A2 was treated with 0.5 µM dTAG7 for 18 hours. These cells were treated with MLN4924 (MLN, 1 µM), pomalidomide (poma., 10 µM), or bafilomycin A1 (bafi., 2.5 µM) to monitor the inhibition of degradation.
as §1
SLCs were ectopically expressed as fusions to a mutated FKBP domain, also known as the dTAG system. In brief, a dTAGed protein is amenable to degradation by specific chimeric degrader molecules (e.g. dTAG7/dTAG13) that simultaneously bind to the dTAG and the CRL4CRBN E3 ligase, inducing molecular proximity and ensuing degradation by the proteasome. Given that SLCs were expressed in all cellular compartments, the amenability of differentially located SLCs to targeted proteolysis was tested (FIG. 1A, upper graph). Each of the tested SLCs was stably expressed in HAP1 cells, and subcellular localization was assessed by immunofluorescence microscopy (FIG. 1B). In detail, SLCs located at the cell surface (SLC1A5, SLC38A1, SLC2A1, SLC2A3, SLC16A1, SLC4A4, SLC7A3), cell surface and vesicles (SLC38A2), lysosome (SLC38A9), Golgi (SLC35B2, SLC33A1), mitochondria (SLC25A26, SLC25A1, and MTCH2) and endoplasmic reticulum (SLC39A7, SLC30A9) were assayed. Cellular treatment with a specific degrader molecule (dTAG7 or dTAG13) led to identification of SLCs expressed at cell surface, endoplasmic reticulum and lysosome that were amenable to targeted degradation (FIGS. 1C, 5A). The dTAG could be placed on either N- or C-terminus of the SLC, if both face the cytoplasm (FIG. 5B), as exemplified by SLC2A3. […]

T1 sequence (P19634 whole entry): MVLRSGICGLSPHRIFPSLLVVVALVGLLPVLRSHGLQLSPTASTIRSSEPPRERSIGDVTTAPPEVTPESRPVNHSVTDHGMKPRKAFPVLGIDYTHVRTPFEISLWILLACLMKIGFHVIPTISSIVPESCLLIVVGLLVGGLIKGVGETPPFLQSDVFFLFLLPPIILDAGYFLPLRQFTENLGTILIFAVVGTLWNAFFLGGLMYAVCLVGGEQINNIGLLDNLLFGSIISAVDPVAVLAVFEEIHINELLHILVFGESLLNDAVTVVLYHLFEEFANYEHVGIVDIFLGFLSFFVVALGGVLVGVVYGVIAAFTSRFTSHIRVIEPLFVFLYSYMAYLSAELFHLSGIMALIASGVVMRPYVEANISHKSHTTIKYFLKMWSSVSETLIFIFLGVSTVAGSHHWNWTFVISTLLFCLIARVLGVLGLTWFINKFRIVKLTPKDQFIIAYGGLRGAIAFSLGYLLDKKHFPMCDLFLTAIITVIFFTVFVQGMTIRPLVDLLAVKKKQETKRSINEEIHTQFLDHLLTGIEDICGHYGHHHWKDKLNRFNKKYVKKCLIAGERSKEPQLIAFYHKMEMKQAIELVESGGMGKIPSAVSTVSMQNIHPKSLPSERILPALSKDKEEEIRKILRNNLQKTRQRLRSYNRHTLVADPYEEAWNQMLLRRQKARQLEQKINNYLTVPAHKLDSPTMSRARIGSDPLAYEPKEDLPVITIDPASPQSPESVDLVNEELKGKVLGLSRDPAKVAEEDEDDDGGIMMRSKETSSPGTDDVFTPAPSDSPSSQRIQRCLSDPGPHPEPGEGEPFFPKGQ

With `CC(C)C[C@@H](C=O)NC(=O)[C@H](CC(C)C)NC(=O)[C@H](CC(C)C)NC(=O)OCc1ccccc1` [MG132] (Cbz-Leu-Leu-Leu-aldehyde), the “effect of co-treatment on d9A1-2 driven SLC9A1 degradation (chemical rescue)” value at SLC9A1 was “rescued SLCs degradation”. The “effect of co-treatment on dTAG7 mediated SLC degradation (chemical rescue)” value with dTAG-HA SLCs is reported as “rescued SLCs degradation”.

On to `NS(=O)(=O)OC[C@@H]1C[C@@H](n2ccc3c(N[C@H]4CCc5ccccc54)ncnc32)C[C@@H]1O` [MLN4924], for which, on SLC9A1, the “effect of co-treatment on d9A1-2 driven SLC9A1 degradation (chemical rescue)” value is “abrogated”. Moreover, the “effect of co-treatment on dTAG7 mediated SLC degradation (chemical rescue)” value with dTAG-HA SLCs is given as “blocked”.

`CO/C1=C\C(C)=C\[C@@H](C)[C@@H](O)[C@@H](C)C/C(C)=C/C=C/[C@H](OC)[C@@H]([C@@H](C)[C@@H](O)[C@H](C)[C@@]2(O)C[C@@H](O)[C@H](C)[C@@H](C(C)C)O2)OC1=O` [bafilomycin A1]: the “effect of co-treatment on dTAG7 mediated SLC degradation (chemical rescue)” value in the test with dTAG-HA SLCs is “degradation appeared unaffected”.

For the compound `CC(C)C[C@H](NC(=O)[C@H](Cc1ccccc1)NC(=O)c1cnccn1)B(O)O` [bortezomib], the “effect of co-treatment on d9A1-2 driven SLC9A1 degradation (chemical rescue)” value on SLC9A1 is on record as “rescued SLCs degradation”. For the same compound, the “effect of co-treatment on dTAG7 mediated SLC degradation (chemical rescue)” value in the test with dTAG-HA SLCs is “rescued SLCs degradation”.

On to `Nc1cccc2c1C(=O)N(C1CCC(=O)NC1=O)C2=O` (stereo not drawn) [pomalidomide], for which the “effect of co-treatment on d9A1-2 driven SLC9A1 degradation (chemical rescue)” value on SLC9A1 is listed as “blocked d9A1-2-induced degradation of SLC9A1”. In addition, in the test on dTAG-HA SLCs, the “effect of co-treatment on dTAG7 mediated SLC degradation (chemical rescue)” value is recorded as “prevented measurable SLC degradation”.
